From patent publication US20060046968A1, “Prodrug substituted benzoxazoles as estrogenic agents” (priority 2004, published 2006)
Where two headings read alike, the source gives them in different places.

Experiments:
human ERβ = biological target: T1, human ERβ (Homo sapiens, UniProt Q92731); assay: ER radioligand binding competition, ERβ
T1 construct: Flag (C); made in house; host or cells: E. coli BL21 (DE3), clarified lysate

human ERα = biological target: T2, human ERα (Homo sapiens, UniProt P03372); assay: ER radioligand binding competition, ERα
T2 construct: These templates contained amino acids M250-V595 of human ERα; His (N); Flag (C); made in house; host or cells: E. coli BL21 (DE3), clarified lysate
T2 sequence (P03372 250-595): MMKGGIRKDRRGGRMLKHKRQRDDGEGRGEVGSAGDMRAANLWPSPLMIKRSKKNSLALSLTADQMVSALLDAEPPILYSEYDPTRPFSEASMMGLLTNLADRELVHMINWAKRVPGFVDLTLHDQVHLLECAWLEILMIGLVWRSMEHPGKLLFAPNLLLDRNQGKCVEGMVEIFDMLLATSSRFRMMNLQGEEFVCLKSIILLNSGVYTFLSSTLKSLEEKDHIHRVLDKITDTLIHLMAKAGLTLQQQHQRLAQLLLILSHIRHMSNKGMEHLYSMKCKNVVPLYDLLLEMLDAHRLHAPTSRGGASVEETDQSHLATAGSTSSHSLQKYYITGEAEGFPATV

[1] = tested on: Sexually immature 129 SvE mice; assay: Mouse uterotrophic test procedure (Procedure 2); type: in vivo; conditions: compound 50 mg/kg s.c., days 22-25
Lewis rats = assay: Lewis rat adjuvant-induced arthritis, treatment protocol: joint score (maximal score per day 12); type: in vivo; conditions: s.c. daily, begun Day 8 after adjuvant
[2] = tested on: ovariectomized Sprague-Dawley rats; assay: Bone mineral density in the ovariectomized rat (pQCT, proximal tibia); type: in vivo; conditions: 17β-estradiol 2 μg/rat s.c.; 5 weeks
[3] = competition with [3H]-17β-estradiol, read-out: ER-α IC50

T1 sequence (Q92731 214-530): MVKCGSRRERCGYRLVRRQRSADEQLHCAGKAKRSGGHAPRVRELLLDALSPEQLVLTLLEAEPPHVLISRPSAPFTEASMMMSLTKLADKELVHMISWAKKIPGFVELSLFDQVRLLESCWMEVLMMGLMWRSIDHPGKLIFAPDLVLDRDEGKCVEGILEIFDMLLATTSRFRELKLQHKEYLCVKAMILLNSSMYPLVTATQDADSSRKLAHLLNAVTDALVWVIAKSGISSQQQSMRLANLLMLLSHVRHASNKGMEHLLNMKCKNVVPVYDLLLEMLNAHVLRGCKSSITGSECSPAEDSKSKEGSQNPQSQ

Question: What does the source list for COc1cc(O)c(Br)c2nc(-c3ccc(O)cc3)oc12 [Example 59, 4-BROMO-2-(4-HYDROXYPHENYL)-7-METHOXY-1,3-BENZOXAZOL-5-OL]?
Answer: IC50 (human ERβ): 52 nM; IC50 (human ERα; [3]): 2670 nM

Question: Oc1cc(Br)c2oc(-c3ccc(O)c(F)c3F)nc2c1 [Example 23, 7-BROMO-2-(2,3-DIFLUORO-4-HYDROXYPHENYL)-1,3-BENZOXAZOL-5-OL] was tested. Which IC50 (human ERβ) did it give?
Answer: Its IC50 is 3 nM.

Question: And the IC50 (human ERα; [3])?
Answer: The IC50 was 113 nM.

Question: Which results are given for COc1c(Br)c(O)c(Br)c2nc(-c3ccc(O)cc3)oc12 [Example 60, 4,6-DIBROMO-2-(4-HYDROXYPHENYL)-7-METHOXY-1,3-BENZOXAZOL-5-OL]?
Answer: IC50 (human ERβ): 64 nM; IC50 (human ERα; [3]): 559 nM

Question: How did the IC50 (human ERβ) turn out when Oc1ccc(O)c(-c2nc3cc(O)ccc3o2)c1 [Example 1, 2-(5-HYDROXY-1,3-BENZOXAZOL-2-YL) BENZENE-1,4-DIOL] was run?
Answer: The IC50 was 140 nM.

Question: What about the IC50 (human ERα; [3]) of the same compound?
Answer: The IC50 was 720 nM.

Question: What does the source list for C=C(Br)c1cc(O)cc2nc(-c3ccc(O)c(F)c3F)oc12 [Example 33, 7-(1-BROMOVINYL)-2-(2,3-DIFLUORO-4-HYDROXYPHENYL)-1,3-BENZOXAZOL-5-OL]?
Answer: IC50 (human ERβ): 31 nM; IC50 (human ERα; [3]): 352 nM

Question: What does the source list for Oc1ccc(-c2nc3cc(O)cc(C(Br)CBr)c3o2)cc1 (stereo not drawn) [Example 30, 7-(1,2-DIBROMOETHYL)-2-(4-HYDROXYPHENYL)-1,3-BENZOXAZOL-5-OL]?
Answer: IC50 (human ERβ): 134 nM; IC50 (human ERα; [3]): 3080 nM

Question: Which IC50 (human ERα) does the source give for Oc1ccc2nc(-c3ccc(O)c(F)c3)oc2c1 [Example 6, 2-(3-FLUORO-4-HYDROXYPHENYL)-1,3-BENZOXAZOL-6-OL] here?
Answer: Its IC50 is 843 nM.

Question: Which “mean uterine weight ± SEM” value [1] does the source give for NC(=O)c1cc(O)cc2nc(-c3ccc(O)cc3)oc12 [Example 42, 5-HYDROXY-2-(4-HYDROXYPHENYL)-1,3-BENZOXAZOL-7-CARBOXAMIDE] here?
Answer: Its value is 9.5 ± 0.6 mg.

Question: Which IC50 (human ERβ) does the source give for C=C(Br)c1cc(O)cc2nc(-c3ccc(O)cc3)oc12 [Example 31, 7-(1-BROMOVINYL)-2-(4-HYDROXYPHENYL)-1,3-BENZOXAZOL-5-OL] here?
Answer: The IC50 was 31 nM.

Question: And the IC50 (human ERα; [3])?
Answer: Its IC50 is 352 nM.

Question: For Oc1cc(Br)c2oc(-c3cc(F)c(O)c(F)c3)nc2c1 [Example 61, 7-BROMO-2-(3,5-DIFLUORO-4-HYDROXYPHENYL)-1,3-BENZOXAZOL-5-OL], which IC50 (human ERβ) is on record?
Answer: Its IC50 is 93 nM.

Question: What about the IC50 (human ERα; [3]) of the same compound?
Answer: The IC50 was 1180 nM.

Question: How did the IC50 (human ERβ) turn out when Oc1ccc(O)c(-c2nc3ccc(O)cc3o2)c1 [Example 8, 2-(6-HYDROXY-1,3-BENZOXAZOL-2-YL)BENZENE-1,4-DIOL] was run?
Answer: Its IC50 is 181 nM.

Question: What about the IC50 (human ERα; [3]) of the same compound?
Answer: The IC50 was 2350 nM.

Question: CC(C)(O)c1cc(O)cc2nc(-c3ccc(O)cc3)oc12 [Example 50] was tested. Which IC50 (human ERβ) did it give?
Answer: The IC50 was 399 nM.

Question: And the IC50 (human ERα; [3])?
Answer: Its IC50 is > 5000 nM.

Question: Which IC50 (human ERβ) does the source give for CCc1cc(O)ccc1-c1nc2cc(O)cc(CC)c2o1 [Example 45, 7-ETHYL-2-(2-ETHYL-4-HYDROXYPHENYL)-1,3-BENZOXAZOL-5-OL] here?
Answer: The IC50 was 84 nM.

Question: What about the IC50 (human ERα; [3]) of the same compound?
Answer: The IC50 was 655 nM.

Question: Which results are given for C=Cc1cc(O)cc2nc(-c3ccc(O)cc3)oc12 [Example 27, 2-(4-HYDROXYPHENYL)-7-VINYL-1,3-BENZOXAZOL-5-OL]?
Answer: IC50 (human ERα): 409 nM; Joint inflammation score (Lewis rats; table Day 1): 11.33; Joint inflammation score (Lewis rats; table Day 2): 11.15; Joint inflammation score (Lewis rats; table Day 3): 11.33; Joint inflammation score (Lewis rats; table Day 4): 9.83; Joint inflammation score (Lewis rats; table Day 5): 8.83; Joint inflammation score (Lewis rats; table Day 6): 7.83; Joint inflammation score (Lewis rats; table Day 7): 6.16; Joint inflammation score (Lewis rats; table Day 8): 5.00; Joint inflammation score (Lewis rats; table Day 9): 4.33; Joint inflammation score (Lewis rats; table Day 10): 2.66; Joint inflammation score (Lewis rats; table Day 11): 1.83; Joint inflammation score (Lewis rats; table Day 12): 1.83; Joint inflammation score (Lewis rats; table Day 13): 2.66; Joint inflammation score (Lewis rats; table Day 14): 2.66; Joint inflammation score (Lewis rats; table Day 15): 2.00; Joint inflammation score (Lewis rats; table Day 16): 2.00; Joint inflammation score (Lewis rats; table Day 17): 1.50

Question: With Oc1ccc2nc(-c3cccc(O)c3O)oc2c1 [Example 9, 3-(6-HYDROXY-1,3-BENZOXAZOL-2-YL)BENZENE-1,2-DIOL] as the compound, how does the IC50 (human ERα) read?
Answer: Its IC50 is 1500 nM.

Question: For C=C(Br)c1cc(O)cc2nc(-c3ccc(O)cc3F)oc12 [Example 32, 7-(1-BROMOVINYL)-2-(2-FLUORO-4-HYDROXYPHENYL)-1,3-BENZOXAZOL-5-OL], which IC50 (human ERβ) is on record?
Answer: The IC50 was 16 nM.

Question: And the IC50 (human ERα; [3])?
Answer: Its IC50 is 196 nM.

Question: And the Joint inflammation score (Lewis rats; table Day 1)?
Answer: Its Joint inflammation score is 11.33.

Question: And the Joint inflammation score (Lewis rats; table Day 2)?
Answer: Its Joint inflammation score is 10.83.

Question: What about the Joint inflammation score (Lewis rats; table Day 3) of the same compound?
Answer: Its Joint inflammation score is 9.33.

Question: And the Joint inflammation score (Lewis rats; table Day 4)?
Answer: Its Joint inflammation score is 8.00.

Question: And the Joint inflammation score (Lewis rats; table Day 5)?
Answer: Its Joint inflammation score is 5.83.

Question: What about the Joint inflammation score (Lewis rats; table Day 6) of the same compound?
Answer: The Joint inflammation score was 3.33.

Question: What about the Joint inflammation score (Lewis rats; table Day 7) of the same compound?
Answer: Its Joint inflammation score is 3.00.

Question: What about the Joint inflammation score (Lewis rats; table Day 8) of the same compound?
Answer: The Joint inflammation score was 2.50.

Question: And the Joint inflammation score (Lewis rats; table Day 9)?
Answer: The Joint inflammation score was 2.50.

Question: What about the Joint inflammation score (Lewis rats; table Day 10) of the same compound?
Answer: Its Joint inflammation score is 2.50.

Question: What about the Joint inflammation score (Lewis rats; table Day 11) of the same compound?
Answer: Its Joint inflammation score is 2.50.

Question: What about the Joint inflammation score (Lewis rats; table Day 12) of the same compound?
Answer: The Joint inflammation score was 2.50.

Question: What about the Joint inflammation score (Lewis rats; table Day 13) of the same compound?
Answer: The Joint inflammation score was 2.50.

Question: And the Joint inflammation score (Lewis rats; table Day 14)?
Answer: Its Joint inflammation score is 2.50.

Question: What about the Joint inflammation score (Lewis rats; table Day 15) of the same compound?
Answer: Its Joint inflammation score is 2.00.

Question: What about the Joint inflammation score (Lewis rats; table Day 16) of the same compound?
Answer: The Joint inflammation score was 1.33.

Question: What about the Joint inflammation score (Lewis rats; table Day 17) of the same compound?
Answer: Its Joint inflammation score is 1.00.

Question: How did the “Total Bone Mineral Density (mean ± SEM)” value [2] turn out when C[C@]12CC[C@@H]3c4ccc(O)cc4CC[C@H]3[C@@H]1CC[C@@H]2O [17β-estradiol, reference compound] was run?
Answer: Its value is 639.49 ± 14.47 mg/mL.

Question: And the “Trabecular Bone Mineral Density (mean ± SEM)” value [2]?
Answer: Its value is 453.28 ± 24.93 mg/mL.

Question: For C=C(C)c1cc(O)cc2nc(-c3ccc(O)cc3)oc12 [Example 51, 2-(4-HYDROXYPHENYL)-7-ISOPROPENYL-1,3-BENZOXAZOL-5-OL], which IC50 (human ERβ) is on record?
Answer: Its IC50 is 142 nM.

Question: What about the IC50 (human ERα; [3]) of the same compound?
Answer: The IC50 was 775 nM.
